Patent US10053461B2 (Hoffmann-La Roche Inc., priority 2015, dated 2018)

test system: HBsAg; test: microbe, parasite or virus in culture; conditions: Hepatitis B virus, HepG2.2.15
Protocol: HepG2.2.15 cells (Acs et al. Proc Natl Acad Sci USA, 84, (1987), 4641-4), a constitutively HBV-expressing cell line were cultured in DMEM+Glutamax-I medium (Invitrogen, Carlsbad, Calif., USA), supplemented with 10% fetal bovine serum (Invitrogen) and G418 (Invitrogen) at a final concentration of 200 mg/L and maintained in 5% CO2 at 37° C.
HepG2.2.15 cells were seeded in duplicate into white, 96-well plates at 1.5×10^4 cells/well. The cells were treated with a three-fold serial dilution series of the compounds in DMSO. The final DMSO concentration in all wells was 1% and DMSO was used as no drug control.
The HBsAg chemiluminescence immunoassay (CLIA) kit (Autobio Diagnostics Co., Zhengzhou, China, Catalog number: CL0310-2) was used to measure the levels of secreted HBV antigens semi-quantitatively. For the detection 50 μL/well culture supernatant was used and HBsAg was quantified using HBsAg chemiluminescence immunoassay (CLIA) kit (Autobio Diagnostics Co., Zhengzhou, China, Catalog number: CL0310-2), 50 μL of the supernatant was transferred to the CLIA assay plate and 50 μL of enzyme conjugate reagent was added into each well. The plates were sealed and gently agitated for 1 hour at room temperature. The supernatant-enzyme-mixture was discarded and wells were washed 6 times with 300 μL of PBS. The residual liquid was removed by plating the CLIA plate right side down on absorbent tissue paper. 25 μL of substrates A and B were added to each well. Luminance was measured using a luminometer (Mithras LB 940 Multimode Microplate Reader) after 10 minutes incubation. Dose-response curves were generated and the IC50 value was extrapolated by using the E-WorkBook Suite (ID Business Solutions Ltd., Guildford, UK). The IC50 was defined as the compound concentration (or conditioned media log dilution) at which HBsAg secretion was reduced by 50% compared to the no drug control.
The compounds of the present invention were tested for their activity to inhibit HBsAg as described herein.

| SMILES | IC50 [nM] |
| --- | --- |
| COCCCOc1cc2c(cc1OC)-c1cc(=O)c(C(=O)O)cn1[C@H]1[C@@H]2CCC1(C)C (racemic) [Example 2, cis-10-methoxy-11-(3-methoxypropoxy)-3,3-dimethyl-7-oxo-1,2,3,3a,7,12b-hexahydrocyclopenta[c]pyrido[2,1-a]isoquinoline-6-carboxylic acid] | 1 |
| COc1cc2c(cc1OCc1ccccc1)[C@H]1CCCC[C@@H]1n1cc(C(=O)O)c(=O)cc1-2 (racemic) [Example 31, Trans-12-benzyloxy-11-methoxy-8-oxo-1,2,3,4,4a,13b-hexahydropyrido[1,2-f]phenanthridine-7-carboxylic acid] | 120 |
| COCCCOc1cc2c(cc1OC)-c1cc(=O)c(C(=O)O)cn1[C@@H]1CCSC[C@@H]21 (racemic) [Example 35, Trans-11-methoxy-12-(3-methoxypropoxy)-8-oxo-1,3,4,4a,8,13b-hexahydropyrido[2,1-a]thiopyrano[4,3-c]isoquinoline-7-carboxylic acid] | 110 |
| COCCCOc1cc2c(cc1OC)-c1cc(=O)c(C(=O)O)cn1[C@@H]1CCSC[C@H]21 (racemic) [Example 36, cis-11-methoxy-12-(3-methoxypropoxy)-8-oxo-1,3,4,4a,8,13b-hexahydropyrido[2,1-a]thiopyrano[4,3-c]isoquinoline-7-carboxylic acid] | 28 |
| COCCCOc1cc2c(cc1OC)-c1cc(=O)c(C(=O)O)cn1[C@H]1[C@H]2CCC1(C)C (relative stereo) [Example 1, Trans-10-methoxy-11-(3-methoxypropoxy)-3,3-dimethyl-7-oxo-1,2,3,3a,7,12b-hexahydrocyclopenta[c]pyrido[2,1-a]isoquinoline-6-carboxylic acid] | 10 |
| COc1cc2c(cc1O)[C@H]1CCC(C)(C)[C@H]1n1cc(C(=O)O)c(=O)cc1-2 (relative stereo) [Example 6, Cis-11-hydroxy-10-methoxy-3,3-dimethyl-7-oxo-1,2,3,3a,7,12b-hexahydrocyclopenta[c]pyrido[2,1-a]isoquinoline-6-carboxylic acid] | 84 |
| COc1cc2c(cc1OC)[C@H]1CCC(C)(C)[C@H]1n1cc(C(=O)O)c(=O)cc1-2 (relative stereo) [Example 7, Cis-10,11-dimethoxy-3,3-dimethyl-7-oxo-1,2,3,3a,7,12b-hexahydrocyclopenta[c]pyrido[2,1-a]isoquinoline-6-carboxylic acid] | 5 |
| COc1cc2c(cc1OCC(F)(F)F)[C@H]1CCC(C)(C)[C@H]1n1cc(C(=O)O)c(=O)cc1-2 (relative stereo) [Example 8, Cis-10-methoxy-3,3-dimethyl-7-oxo-11-(2,2,2-trifluoroethoxy)-1,2,3,3a,7,12b-hexahydrocyclopenta[c]pyrido[2,1-a]isoquinoline-6-carboxylic acid] | 3 |
| COc1cc2c(cc1OCC(C)C)[C@H]1CCC(C)(C)[C@H]1n1cc(C(=O)O)c(=O)cc1-2 (relative stereo) [Example 9, Cis-11-isobutoxy-10-methoxy-3,3-dimethyl-7-oxo-1,2,3,3a,7,12b-hexahydrocyclopenta[c]pyrido[2,1-a]isoquinoline-6-carboxylic acid] | 1 |
| COc1cc2c(cc1OCC1CC1)[C@H]1CCC(C)(C)[C@H]1n1cc(C(=O)O)c(=O)cc1-2 (relative stereo) [Example 10, Cis-11-(cyclopropylmethoxy)-10-methoxy-3,3-dimethyl-7-oxo-1,2,3,3a,7,12b-hexahydrocyclopenta[c]pyrido[2,1-a]isoquinoline-6-carboxylic acid] | 1 |
| COCCOc1cc2c(cc1OC)-c1cc(=O)c(C(=O)O)cn1[C@H]1[C@@H]2CCC1(C)C (relative stereo) [Example 11, Cis-10-methoxy-11-(2-methoxyethoxy)-3,3-dimethyl-7-oxo-1,2,3,3a,7,12b-hexahydrocyclopenta[c]pyrido[2,1-a]isoquinoline-6-carboxylic acid] | 4 |
| COc1cc2c(cc1OCCCC#N)[C@H]1CCC(C)(C)[C@H]1n1cc(C(=O)O)c(=O)cc1-2 (relative stereo) [Example 12, Cis-11-(3-cyanopropoxy)-10-methoxy-3,3-dimethyl-7-oxo-1,2,3,3a,7,12b-hexahydrocyclopenta[c]pyrido[2,1-a]isoquinoline-6-carboxylic acid] | 4 |
| COc1cc2c(cc1OCCCO)[C@H]1CCC(C)(C)[C@H]1n1cc(C(=O)O)c(=O)cc1-2 (relative stereo) [Example 13, Cis-11-(3-hydroxypropoxy)-10-methoxy-3,3-dimethyl-7-oxo-1,2,3,3a,7,12b-hexahydrocyclopenta[c]pyrido[2,1-a]isoquinoline-6-carboxylic acid] | 5 |
| COc1cc2c(cc1OCC(C)(C)CO)[C@H]1CCC(C)(C)[C@H]1n1cc(C(=O)O)c(=O)cc1-2 (relative stereo) [Example 14, Cis-11-(3-hydroxy-2,2-dimethylpropoxy)-10-methoxy-3,3-dimethyl-7-oxo-1,2,3,3a,7,12b-hexahydrocyclopenta[c]pyrido[2,1-a]isoquinoline-6-carboxylic acid] | 3 |
| COc1cc2c(cc1OCCCN1CCOCC1)[C@H]1CCC(C)(C)[C@H]1n1cc(C(=O)O)c(=O)cc1-2 (relative stereo) [Example 15, Cis-10-methoxy-3,3-dimethyl-11-(3-morpholinopropoxy)-7-oxo-1,2,3,3a,7,12b-hexahydrocyclopenta[c]pyrido[2,1-a]isoquinoline-6-carboxylic acid] | 6 |
| COc1cc2c(cc1OCCCN1CCCC1)[C@H]1CCC(C)(C)[C@H]1n1cc(C(=O)O)c(=O)cc1-2 (relative stereo) [Example 16, Cis-10-methoxy-3,3-dimethyl-7-oxo-11-(3-(pyrrolidin-1-yl)propoxy)-1,2,3,3a,7,12b-hexahydrocyclopenta[c]pyrido[2,1-a]isoquinoline-6-carboxylic acid] | 128 |
| COc1cc2c(cc1OCCCN1CCCC1=O)[C@H]1CCC(C)(C)[C@H]1n1cc(C(=O)O)c(=O)cc1-2 (relative stereo) [Example 17, Cis-10-methoxy-3,3-dimethyl-7-oxo-11-(3-(2-oxopyrrolidin-1-yl)propoxy)-1,2,3,3a,7,12b-hexahydrocyclopenta[c]pyrido[2,1-a]isoquinoline-6-carboxylic acid] | 25 |
| CCOC(=O)CCCOc1cc2c(cc1OC)-c1cc(=O)c(C(=O)O)cn1[C@H]1[C@@H]2CCC1(C)C (relative stereo) [Example 18, Cis-11-(4-ethoxy-4-oxobutoxy)-10-methoxy-3,3-dimethyl-7-oxo-1,2,3,3a,7,12b-hexahydrocyclopenta[c]pyrido[2,1-a]isoquinoline-6-carboxylic acid] | 10 |
| COc1cc2c(cc1OCCCC(=O)O)[C@H]1CCC(C)(C)[C@H]1n1cc(C(=O)O)c(=O)cc1-2 (relative stereo) [Example 19, Cis-11-(3-carboxypropoxy)-10-methoxy-3,3-dimethyl-7-oxo-1,2,3,3a,7,12b-hexahydrocyclopenta[c]pyrido[2,1-a]isoquinoline-6-carboxylic acid] | 505 |
| COc1cc2c(cc1OCCCSC)[C@H]1CCC(C)(C)[C@H]1n1cc(C(=O)O)c(=O)cc1-2 (relative stereo) [Example 20, Cis-10-methoxy-3,3-dimethyl-11-(3-(methylthio)propoxy)-7-oxo-1,2,3,3a,7,12b-hexahydrocyclopenta[c]pyrido[2,1-a]isoquinoline-6-carboxylic acid] | 2 |
| COc1cc2c(cc1OCCCS(C)(=O)=O)[C@H]1CCC(C)(C)[C@H]1n1cc(C(=O)O)c(=O)cc1-2 (relative stereo) [Example 21, Cis-10-methoxy-3,3-dimethyl-11-(3-(methylsulfonyl)propoxy)-7-oxo-1,2,3,3a,7,12b-hexahydrocyclopenta[c]pyrido[2,1-a]isoquinoline-6-carboxylic acid] | 17 |
| COc1cc2c(cc1OCCCCCCO)[C@H]1CCC(C)(C)[C@H]1n1cc(C(=O)O)c(=O)cc1-2 (relative stereo) [Example 22, Cis-11-((6-hydroxyhexyl)oxy)-10-methoxy-3,3-dimethyl-7-oxo-1,2,3,3a,7,12b-hexahydrocyclopenta[c]pyrido[2,1-a]isoquinoline-6-carboxylic acid] | 1 |
| COc1cc2c(cc1OCCCCCCNC(=O)OC(C)(C)C)[C@H]1CCC(C)(C)[C@H]1n1cc(C(=O)O)c(=O)cc1-2 (relative stereo) [Example 23, Cis-11-((6-((tert-butoxycarbonyl)amino)hexyl)oxy)-10-methoxy-3,3-dimethyl-7-oxo-1,2,3,3a,7,12b-hexahydrocyclopenta[c]pyrido[2,1-a]isoquinoline-6-carboxylic acid] | 2 |
| COc1cc2c(cc1OCCCCCCN)[C@H]1CCC(C)(C)[C@H]1n1cc(C(=O)O)c(=O)cc1-2 (relative stereo) [Example 24, Cis-11-((6-aminohexyl)oxy)-10-methoxy-3,3-dimethyl-7-oxo-1,2,3,3a,7,12b-hexahydrocyclopenta[c]pyrido[2,1-a]isoquinoline-6-carboxylic acid] | 20 |
| COc1cc2c(cc1OCCCCCCNC(C)=O)[C@H]1CCC(C)(C)[C@H]1n1cc(C(=O)O)c(=O)cc1-2 (relative stereo) [Example 25, Cis-11-((6-acetamidohexyl)oxy)-10-methoxy-3,3-dimethyl-7-oxo-1,2,3,3a,7,12b-hexahydrocyclopenta[c]pyrido[2,1-a]isoquinoline-6-carboxylic acid] | 6 |
| COc1cc2c(cc1OCCCCCCNS(C)(=O)=O)[C@H]1CCC(C)(C)[C@H]1n1cc(C(=O)O)c(=O)cc1-2 (relative stereo) [Example 26, Cis-10-methoxy-3,3-dimethyl-11-((6-(methylsulfonamido)hexyl)oxy)-7-oxo-1,2,3,3a,7,12b-hexahydrocyclopenta[c]pyrido[2,1-a]isoquinoline-6-carboxylic acid] | 2 |
| COCCCOc1cc2c(cc1Cl)-c1cc(=O)c(C(=O)O)cn1[C@@H]1CCCCC[C@@H]21 (relative stereo) [Example 27, Trans-13-chloro-12-(3-methoxypropoxy)-2-oxo-2,5a,6,7,8,9,10,10a-octahydrocyclohepta[c]pyrido[2,1-a]isoquinoline-3-carboxylic acid] | 20 |
